Reference: patent US8889878B2, “Haloalky-substituted amides as insecticides and acaricides” (Bayer CropScience AG, priority 2009, dated 2014)

Experiments:
[1] = system: armyworm (Spodoptera frugiperda); assay: Spodoptera frugiperda test (SPODFR spray treatment), Example 15; type: in vivo; details: application rate 500 g/ha, maize leaf discs sprayed, after 7 days; for pest or weed control at 500 g/ha: Spodoptera frugiperda, foliar, 168 h, read-out: efficacy in %
Outline: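 Caterpillars placed on dried, sprayed Zea mays leaf discs; formulation of acetone, dimethylformamide and emulsifier diluted with emulsifier-containing water to test concentration. Percent kill scored on day 7.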

[2] = system: mustard beetle (Phaedon cochleariae); assay: Phaedon test (PHAECO spray treatment), Example 16; type: in vivo; details: china cabbage leaf discs sprayed, after the desired time; for pest or weed control at 500 g/ha / efficacy in %: application rate 500 g/ha
Description: Phaedon Test (PHAECO Spray Treatment)
(§1) • Solvent: 78.0 parts by weight of acetone • 1.5 parts by weight of dimethylformamide • Emulsifier: 0.5 part by weight of alkylaryl polyglycol ether
To prepare an appropriate active ingredient formulation, 1 part by weight of active ingredient is mixed with the stated amounts of solvent and emulsifier, and the concentrate is diluted with emulsifier-containing water to the desired concentration. […]
After the desired time, the efficacy in % is determined. 100% means that all beetle larvae were killed; 0% means that no beetle larvae were killed.

[3] = logP by HPLC on reverse-phase column (EEC Directive 79/831 Annex V.A8); type: physicochemical; details: for chromatographic logP: reverse-phase C18 HPLC column, pH 2.7, HPLC
Description: The logP values reported in the above Tables and Preparation Examples were determined according to EEC Directive 79/831 Annex V.A8 by HPLC (High Performance Liquid Chromatography) on a reverse-phase column (C18). Temperature 43° C.

Boophilus microplus = Boophilus microplus test (BOOPMI injection), Example 11; type: in vivo; details: application rate 20 μg/animal, injected into abdomen, after 7 days
Description: Boophilus microplus Test (BOOPMI Injection) • Solvent: dimethyl sulphoxide To prepare an appropriate active ingredient formulation, 10 mg of active ingredient are mixed with 0.5 ml of solvent and the concentrate is diluted with solvent to the desired concentration. The active ingredient solution is injected into the abdomen (Boophilus microplus), and the animals are transferred to dishes and stored in a climate-controlled room. The efficacy was assessed by the number of fertile eggs laid. After 7 days, the efficacy in % is determined. 100% means that none of the ticks has laid any fertile eggs.

[4] = system: green peach aphid (Myzus persicae); assay: Myzus test (MYZUPE spray treatment), Example 17; type: in vivo; details: application rate 500 g/ha, china cabbage leaf discs sprayed, after 6 days
Description: Myzus Test (MYZUPE Spray Treatment)
• Solvent: 78 parts by weight of acetone • 1.5 parts by weight of dimethylformamide • Emulsifier: 0.5 part by weight of alkylaryl polyglycol ether
To prepare an appropriate active ingredient formulation, 1 part by weight of active ingredient is mixed with the stated amounts of solvent and emulsifier, and the concentrate is diluted with emulsifier-containing water to the desired concentration. Leaf discs from china cabbage (Brassica pekinensis) infested by all stages of the green peach aphid (Myzus persicae) are sprayed with an active ingredient formulation of the desired concentration.
After 6 days, the efficacy in % is determined. 100% means that all aphids were killed; 0% means that no aphids were killed.

[5] = system: red spider mite (Tetranychus urticae); assay: Tetranychus test, OP-resistant (TETRUR spray treatment), Example 8; type: in vivo; details: application rate 20 g/ha, common bean leaf discs sprayed, after 6 days
Description: Tetranychus Test, OP-resistant (TETRUR Spray Treatment)
as §1
To prepare an active ingredient formulation, 1 part by weight of active ingredient is mixed with the stated amounts of solvent and emulsifier, and the concentrate is diluted with emulsifier-containing water to the desired concentration.
Leaf discs from the common bean (Phaseolus vulgaris) infested by all stages of the red spider mite (Tetranychus urticae) are sprayed with an active ingredient formulation of the desired concentration.
After 6 days, the efficacy in % is determined. 100% means that all spider mites were killed; 0% means that no spider mites were killed.

[6] = system: mustard beetle (Phaedon cochleariae); assay: Phaedon test (PHAECO spray treatment), Example 7; type: in vivo; details: application rate 20 g/ha, china cabbage leaf discs sprayed, after 7 days
Outline: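 Spray formulation (acetone/DMF with alkylaryl polyglycol ether, diluted in emulsifier-containing water) applied to Chinese cabbage leaf discs, which were dried and then stocked with mustard beetle larvae. Efficacy scored at 7 days as % larvae killed (100% all, 0% none).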

[7] = Phaedon cochleariae, foliar, read-out: efficacy in %
[8] = C18 reverse phase, 43° C., acidic range pH 2.7, calibration with alkan-2-ones
[9] = HPLC, C18 reverse phase, 43° C., acidic range pH 2.7, calibration with alkan-2-ones

Row | Compound | efficacy in % [4] [%] | efficacy in % [5] [%] | logP ([3]; HPLC-MS) | efficacy in % [6] [%] | also measured
1 | O=C(/C=C/c1ccc(-c2noc(C3CC3)n2)c(C(F)(F)F)c1)NC(c1cccc(C(F)(F)F)c1)C(F)(F)F (centres unmarked) [Ia-123, (2E)-3-[4-(5-Cyclopropyl-1,2,4-oxadiazol-3-yl)-3-(trifluoromethyl)phenyl]-N-{2,2,2-trifluoro-1-[3-(trifluoromethyl)phenyl]ethyl}acrylamide] | – | – | – | – | pest or weed control at 500 g/ha [1]: 100%; pest or weed control at 500 g/ha [2, 7]: 100%; chromatographic logP [3, 8]: 4.53; pest or weed control at 0.02 mg (Boophilus microplus; Rhipicephalus microplus, 168 h, read-out: efficacy in % (fertile eggs laid)): 100%
2 | CC(=O)NCc1ccc2oc(C(=O)NC(c3cccc(C(F)(F)F)c3)C(F)(F)F)cc2c1 (centres unmarked) [Ic-10, 5-(Acetamidomethyl)-N-{2,2,2-trifluoro-1-[3-(trifluoromethyl)phenyl]ethyl}-1-benzofuran-2-carboxamide] | – | – | – | – | pest or weed control at 500 g/ha [2, 7]: 100%; chromatographic logP [3, 8]: 2.8
3 | N#Cc1ccc2oc(C(=O)NC(c3cccc(C(F)(F)F)c3)C(F)(F)F)cc2c1 (centres unmarked) [Ic-1, 5-Cyano-N-{2,2,2-trifluoro-1-[3-(trifluoromethyl)phenyl]ethyl}-1-benzofuran-2-carboxamide] | – | – | – | – | pest or weed control at 500 g/ha [1]: 100%; pest or weed control at 500 g/ha [2, 7]: 100%; chromatographic logP [3, 8]: 3.63
4 | O=C(/C=C/c1ccc(C(=O)NC2COC2)c(C(F)(F)F)c1)NC(c1cccc(C(F)(F)F)c1)C(F)(F)F (centres unmarked) [Ia-59] | 100 | 100 | HPLC MS: logP = 2.89; mass | 100 | efficacy in % [1]: 83%
5 | N#Cc1cc(/C=C/C(=O)NC(c2ccc(Cl)c(Cl)c2)C(F)(F)F)ccc1-n1cncn1 (centres unmarked) [Ia-17] | – | – | – | – | pest or weed control at 500 g/ha [1]: 100%; pest or weed control at 500 g/ha [2, 7]: 100%; chromatographic logP [3, 8]: 3.22
6 | COC(C)(C)NC(=O)c1ccc(/C=C/C(=O)NC(c2cccc(C(F)(F)F)c2)C(F)(F)F)cc1C(F)(F)F (centres unmarked) [Ia-55] | 90 | 100 | HPLC-MS: logP = 3.37; mass | – | efficacy in % [1]: 83%
7 | N#Cc1ccc2[nH]c(C(=O)NC(c3cc(Cl)cc(C(F)(F)F)c3)C(F)(F)F)cc2c1 (centres unmarked) [Ic-11] | – | – | – | – | efficacy in % [2]: 83%; logP [3, 9]: HPLC-MS: logP = 3.90; mass
8 | O=C(/C=C/c1ccc(C(=O)NC2CS(=O)(=O)C2)c(Cl)c1)NC(c1cccc(C(F)(F)F)c1)C(F)(F)F (centres unmarked) [Ia-166, 2-Chloro-N-(1,1-dioxidothietan-3-yl)-4-[(1E)-3-oxo-3-({2,2,2-trifluoro-1-[3-(trifluoromethyl)phenyl]ethyl}amino)prop-1-en-1-yl]benzamide] | – | – | – | – | pest or weed control at 100 g/ha ([2]; Phaedon cochleariae, foliar, application rate 100 g/ha, read-out: efficacy in %): 100%; chromatographic logP [3, 8]: 2.93
9 | O=C(NC(c1cccc(C(F)(F)F)c1)C(F)(F)F)c1cc2cc(Cl)c(C(=O)NC3CC3)cc2[nH]1 (centres unmarked) [Ic-18] | – | 80 | – | 100 | logP [3, 9]: HPLC-MS: logP = 2.98; mass; efficacy in % (fertile eggs laid) (Boophilus microplus): 100%
10 | O=C(/C=C/c1ccc(C(=O)NCCOCC(F)(F)F)c(C(F)(F)F)c1)NC(c1cccc(C(F)(F)F)c1)C(F)(F)F (centres unmarked) [Ia-47] | – | 90 | HPLC-MS: logP = 3.58; mass | 100 | efficacy in % [1]: 83%
11 | Cc1cc(/C=C/C(=O)NC(c2cccc(C(F)(F)F)c2)C(F)(F)F)ccc1C(=O)O (centres unmarked) [Ia-27] | – | – | HPLC-MS: logP = 3.14; mass | – | efficacy in % [2]: 83%
12 | O=C(/C=C/c1ccc(C(=O)NC2CC2)c(C(F)(F)F)c1)NC(c1cncc(C(F)(F)F)c1)C(F)(F)F (centres unmarked) [Ib-3] | – | – | – | – | efficacy in % [2]: 83%; logP [3, 9]: HPLC-MS: logP = 2.83; mass (m/z):
13 | O=C(/C=C/c1ccc(C(=O)NCC2CC2)c(C(F)(F)F)c1)NC(c1cccc(C(F)(F)F)c1)C(F)(F)F (centres unmarked) [Ia-78] | 90 | 90 | HPLC-MS: logP = 3.52; mass | 100 | –
14 | O=C(NC(c1cccc(C(F)(F)F)c1)C(F)(F)F)c1cc2cc(SC(F)(F)F)ccc2o1 (centres unmarked) [Ic-2] | – | – | – | – | efficacy in % [2]: 83%; logP [3, 9]: HPLC-MS: logP = 4.94; mass
15 | CC(NC(=O)c1ccc(/C=C/C(=O)NC(c2cccc(C(F)(F)F)c2)C(F)(F)F)cc1Br)C1CC1 (centres unmarked) [Ia-93] | – | 90 | HPLC-MS: logP = 3.42 mass | 100 | –
16 | CC(F)(F)C(NC(=O)/C=C/c1ccc(C(=O)NC2CC2)c(Cl)c1)c1cccc(C(F)(F)F)c1 (centres unmarked) [Id-1, 2-Chloro-N-cyclopropyl-4-[(1E)-3-({2,2-difluoro-1-[3-(trifluoromethyl)phenyl]propyl}amino)-3-oxoprop-1-en-1-yl]benzamide] | – | – | – | – | pest or weed control at 500 g/ha [2, 7]: 100%; chromatographic logP [3, 8]: 3.04
17 | CC(F)(F)CNC(=O)c1ccc(/C=C/C(=O)NC(c2cccc(C(F)(F)F)c2)C(F)(F)F)cc1C(F)(F)F (centres unmarked) [Ia-79] | 90 | 90 | HPLC-MS: logP = 3.65; mass | 100 | –
18 | O=C(NC1CC1)c1ccc2cc(C(=O)NC(c3cccc(C(F)(F)F)c3)C(F)(F)F)oc2c1 (centres unmarked) [Ic-19, N^6-Cyclopropyl-N^2-{2,2,2-trifluoro-1-[3-(trifluoromethyl)phenyl]ethyl}-1-benzofuran-2,6-dicarboxamide] | – | – | – | – | pest or weed control at 500 g/ha [2, 7]: 100%; chromatographic logP [3, 8]: 3.25
19 | O=C(/C=C/c1ccc(C(=O)NC2CCOCC2)c(C(F)(F)F)c1)NC(c1cccc(C(F)(F)F)c1)C(F)(F)F (centres unmarked) [Ia-69] | 90 | 100 | HPLC-MS: logP = 3.12; mass | 100 | –
20 | CC(NC(=O)c1ccc(/C=C/C(=O)NC(c2cccc(C(F)(F)F)c2)C(F)(F)F)cc1C(F)(F)F)C1CC1 (centres unmarked) [Ia-56] | – | 100 | HPLC-MS: logP = 3.77; mass | 100 | efficacy in % [1]: 83%
21 | O=C(/C=C/c1ccc(NC(=O)C2CC2)cc1)NC(c1cc(Cl)cc(Cl)c1)C(F)(F)F (centres unmarked) [Ia-1] | – | – | HPLC-MS: logP = 3.77; mass | – | efficacy in % [2]: 83%
22 | O=C(/C=C/c1ccc(C(=O)NC2CCC2)c(C(F)(F)F)c1)NC(c1cccc(C(F)(F)F)c1)C(F)(F)F (centres unmarked) [Ia-61] | 80 | 100 | HPLC-MS: logP = 3.58; mass | 100 | –
23 | C#CCNC(=O)c1ccc(/C=C/C(=O)NC(c2cccc(C(F)(F)F)c2)C(F)(F)F)cc1C(F)(F)F (centres unmarked) [Ia-63] | 90 | 80 | HPLC-MS: logP = 3.36; mass | 100 | –
24 | CC(C)NC(=O)c1ccc(/C=C/C(=O)NC(c2cccc(C(F)(F)F)c2)C(F)(F)F)cc1C(F)(F)F (centres unmarked) [Ia-62] | 80 | 100 | HPLC-MS: logP = 3.41; mass | 100 | –
25 | COC(CNC(=O)c1ccc(/C=C/C(=O)NC(c2cccc(C(F)(F)F)c2)C(F)(F)F)cc1C(F)(F)F)OC (centres unmarked) [Ia-51] | – | 90 | HPLC-MS: logP = 3.18; mass | 100 | –
26 | O=C(/C=C/c1ccc(C(=O)NC2(c3ccccn3)CC2)c(C(F)(F)F)c1)NC(c1cccc(C(F)(F)F)c1)C(F)(F)F (centres unmarked) [Ia-70] | – | 100 | HPLC-MS: logP = 3.23; mass | 100 | efficacy in % [1]: 83%
